Measurements from the NIST ThermoML archive (doi:10.1016/j.jct.2019.02.019).
Numbers after ± are expanded uncertainties.

Tests used:
[1] = xn = mol fraction of the nth substance listed; conditions: 101 kPa, Liquid, x2 = 0; for viscosity: Capillary tube (Ostwald / Ubbelohde) method; for mass density: Vibrating tube method
[2] = 101 kPa, Liquid; for viscosity: Capillary tube (Ostwald / Ubbelohde) method; for mass density: Vibrating tube method

| SMILES | viscosity ([1]; 293.15 K) [mPa·s] | mass density ([1]; 293.15 K) [kg/m3] | viscosity ([1]; 303.15 K) [mPa·s] | mass density ([1]; 303.15 K) [kg/m3] | viscosity ([1]; 313.15 K) [mPa·s] | mass density ([1]; 313.15 K) [kg/m3] | viscosity ([1]; 323.15 K) [mPa·s] | mass density ([1]; 323.15 K) [kg/m3] | viscosity ([2]; 293.15 K) [mPa·s] | mass density ([2]; 293.15 K) [kg/m3] | viscosity ([2]; 303.15 K) [mPa·s] | mass density ([2]; 303.15 K) [kg/m3] | viscosity ([2]; 313.15 K) [mPa·s] | mass density ([2]; 313.15 K) [kg/m3] | viscosity ([2]; 323.15 K) [mPa·s] | mass density ([2]; 323.15 K) [kg/m3] |
| --- | --- | --- | --- | --- | --- | --- | --- | --- | --- | --- | --- | --- | --- | --- | --- | --- |
| CCO [ethanol] + CN(CCO)CCO | 1.17 ± 0.05 | 788.88 ± 1 | 0.97 ± 0.04 | 781.69 ± 1 | 0.81 ± 0.03 | 772.3 ± 1 | 0.69 ± 0.03 | 765.29 ± 1 |  |  |  |  |  |  |  |  |
| CCO [ethanol] |  |  |  |  |  |  |  |  | 1.17 ± 0.05 | 788.88 ± 1 | 0.97 ± 0.04 | 781.69 ± 1 | 0.81 ± 0.03 | 772.3 ± 1 | 0.69 ± 0.03 | 765.29 ± 1 |
| NCCO [2-aminoethan-1-ol] |  |  |  |  |  |  |  |  | 23.4 ± 0.95 | 1016.3 ± 1 | 14.71 ± 0.6 | 1008.02 ± 1 | 9.77 ± 0.4 | 999.98 ± 1 | 6.83 ± 0.28 | 991.97 ± 1 |
| CN(CCO)CCO [N-methyldiethanolamine] |  |  |  |  |  |  |  |  | 103.04 ± 4.3 | 1040.5 ± 1 | 57.28 ± 2.3 | 1032.6 ± 1 | 33.94 ± 1.4 | 1024.76 ± 1 | 21.31 ± 0.87 | 1017.12 ± 1 |
| CCO [ethanol] + NCCO | 1.17 ± 0.05 | 788.88 ± 1 | 0.97 ± 0.04 | 781.69 ± 1 | 0.81 ± 0.03 | 772.3 ± 1 | 0.69 ± 0.03 | 765.29 ± 1 |  |  |  |  |  |  |  |  |
| NCCO [2-aminoethan-1-ol] + CN(CCO)CCO | 23.4 ± 0.95 | 1016.3 ± 1 | 14.71 ± 0.6 | 1008.02 ± 1 | 9.77 ± 0.4 | 999.98 ± 1 | 6.83 ± 0.28 | 991.97 ± 1 |  |  |  |  |  |  |  |  |
